Measured values from patent US20110086759A1, “CHEMICAL COMPOUNDS” (SYNGENTA CROP PROTECTION, INC., priority 2007, published 2011).

How the values were obtained:
Assay type in all cases: in vivo
[1] = system: Echinochloa crus-galli (ECHCG); assay: Post-emergence biological efficacy, glasshouse pot test; conditions: 312 h
In short: (§1)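 Scored 13 days after spraying on a 0 (no damage) to 100 (total damage) scale. Treatment was a post-emergence spray at 1000 or 250 g/ha, from acetone/water 50:50 plus 0.5% Tween 20, onto 8-day-old plants in soil pots. Growth at 24/16° C, 14 h photoperiod, 65% humidity, watered twice daily.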

[2] = system: Amaranthus retoflexus (AMARE); assay: as above; conditions: Amaranthus retroflexus, 312 h
In short: as §1

Solanum nigrum (SOLNI) [3] = assay: as above; conditions: 312 h
In short: as §1

Setaria faberi (SETFA) [4] = assay: as above; conditions: 312 h
In short: as §1

[5] = system: Alopecurus myosuroides (ALOMY); assay: as above; conditions: 312 h
In short: as §1

[6] = system: Ipomea hederaceae (IPOHE); assay: as above; conditions: Ipomoea hederacea, 312 h
In short: as §1

[7] = system: Echinochloa crus-galli (ECHCG); assay: Pre-emergence biological efficacy, glasshouse pot test; conditions: 312 h
In short: (§2)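 Damage was rated on a 0–100 scale 13 days after treatment, with plants kept at 24/16° C, 14 h light and 65% humidity. The pre-emergence spray, at 1000 or 250 g/ha in acetone/water 50:50 with 0.5% Tween 20, was applied one day after sowing.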

[8] = system: Amaranthus retoflexus (AMARE); assay: as above; conditions: Amaranthus retroflexus, 312 h
In short: as §2

Solanum nigrum (SOLNI) [9] = assay: as above; conditions: 312 h
In short: as §2

Setaria faberi (SETFA) [10] = assay: as above; conditions: 312 h
In short: as §2

[11] = system: Alopecurus myosuroides (ALOMY); assay: as above; conditions: 312 h
In short: as §2

[12] = system: Ipomea hederaceae (IPOHE); assay: as above; conditions: Ipomoea hederacea, 312 h
In short: as §2

[13] = Rate 1,000 g/ha, post-emergence spray, evaluated after 13 days (100=total damage to plant; 0=no damage to plant), read-out: Percentage damage caused to weed species, post-emergence, ECHCG
[14] = Rate 1,000 g/ha, post-emergence spray, evaluated after 13 days (100=total damage to plant; 0=no damage to plant), read-out: Percentage damage caused to weed species, post-emergence, AMARE
[15] = Rate 1,000 g/ha, post-emergence spray, evaluated after 13 days (100=total damage to plant; 0=no damage to plant), read-out: Percentage damage caused to weed species, post-emergence, SOLNI
[16] = Rate 1,000 g/ha, post-emergence spray, evaluated after 13 days (100=total damage to plant; 0=no damage to plant), read-out: Percentage damage caused to weed species, post-emergence, SETFA
[17] = Rate 1,000 g/ha, post-emergence spray, evaluated after 13 days (100=total damage to plant; 0=no damage to plant), read-out: Percentage damage caused to weed species, post-emergence, ALOMY
[18] = Rate 1,000 g/ha, post-emergence spray, evaluated after 13 days (100=total damage to plant; 0=no damage to plant), read-out: Percentage damage caused to weed species, post-emergence, IPOHE
[19] = pre-emergence, rate 1,000 g/ha, evaluated after 13 days (100=total damage to plant; 0=no damage), read-out: Percentage damage caused to weed species, ECHCG
[20] = pre-emergence, rate 1,000 g/ha, evaluated after 13 days (100=total damage to plant; 0=no damage), read-out: Percentage damage caused to weed species, AMARE
[21] = pre-emergence, rate 1,000 g/ha, evaluated after 13 days (100=total damage to plant; 0=no damage), read-out: Percentage damage caused to weed species, SOLNI
[22] = pre-emergence, rate 1,000 g/ha, evaluated after 13 days (100=total damage to plant; 0=no damage), read-out: Percentage damage caused to weed species, SETFA
[23] = pre-emergence, rate 1,000 g/ha, evaluated after 13 days (100=total damage to plant; 0=no damage), read-out: Percentage damage caused to weed species, ALOMY
[24] = pre-emergence, rate 1,000 g/ha, evaluated after 13 days (100=total damage to plant; 0=no damage), read-out: Percentage damage caused to weed species, IPOHE
[25] = post-emergence, 1,000 g/ha, evaluated after 13 days (100=total damage; 0=no damage), read-out: Percentage damage caused to weed species, ECHCG
[26] = post-emergence, 1,000 g/ha, evaluated after 13 days (100=total damage; 0=no damage), read-out: Percentage damage caused to weed species, AMARE
[27] = post-emergence, 1,000 g/ha, evaluated after 13 days (100=total damage; 0=no damage), read-out: Percentage damage caused to weed species, SOLNI
[28] = post-emergence, 1,000 g/ha, evaluated after 13 days (100=total damage; 0=no damage), read-out: Percentage damage caused to weed species, SETFA
[29] = post-emergence, 1,000 g/ha, evaluated after 13 days (100=total damage; 0=no damage), read-out: Percentage damage caused to weed species, ALOMY
[30] = post-emergence, 1,000 g/ha, evaluated after 13 days (100=total damage; 0=no damage), read-out: Percentage damage caused to weed species, IPOHE
[31] = pre-emergence, 1,000 g/ha, evaluated after 13 days (100=total damage; 0=no damage), read-out: Percentage damage ECHCG
[32] = pre-emergence, 1,000 g/ha, evaluated after 13 days (100=total damage; 0=no damage), read-out: Percentage damage AMARE
[33] = pre-emergence, 1,000 g/ha, evaluated after 13 days (100=total damage; 0=no damage), read-out: Percentage damage SOLNI
[34] = pre-emergence, 1,000 g/ha, evaluated after 13 days (100=total damage; 0=no damage), read-out: Percentage damage SETFA
[35] = pre-emergence, 1,000 g/ha, evaluated after 13 days (100=total damage; 0=no damage), read-out: Percentage damage ALOMY
[36] = pre-emergence, 1,000 g/ha, evaluated after 13 days (100=total damage; 0=no damage), read-out: Percentage damage IPOHE

Structure (SMILES)	pest or weed control at 1000 g/ha [1, 13]	pest or weed control at 1000 g/ha [2, 14]	pest or weed control at 1000 g/ha (Solanum nigrum (SOLNI) [3]; [15])	pest or weed control at 1000 g/ha (Setaria faberi (SETFA) [4]; [16])	pest or weed control at 1000 g/ha [5, 17]	pest or weed control at 1000 g/ha [6, 18]	pest or weed control at 1000 g/ha [7, 19]	pest or weed control at 1000 g/ha [8, 20]	pest or weed control at 1000 g/ha (Solanum nigrum (SOLNI) [9]; [21])	pest or weed control at 1000 g/ha (Setaria faberi (SETFA) [10]; [22])	pest or weed control at 1000 g/ha [11, 23]	pest or weed control at 1000 g/ha [12, 24]	pest or weed control at 1000 g/ha [1, 25]	pest or weed control at 1000 g/ha [2, 26]	pest or weed control at 1000 g/ha (Solanum nigrum (SOLNI) [3]; [27])	pest or weed control at 1000 g/ha (Setaria faberi (SETFA) [4]; [28])	pest or weed control at 1000 g/ha [5, 29]	pest or weed control at 1000 g/ha [6, 30]	pest or weed control at 1000 g/ha [7, 31]	pest or weed control at 1000 g/ha [8, 32]	also measured
COC(=O)c1nc(C2CC2)nc(N(C)Cc2ccccc2Cl)c1Cl [Compound 5-61, 5-Chloro-4-[N-(2-chlorophenyl-methyl)-N-methyl-amino]-2-cyclopropyl-6-methoxycarbonyl-pyrimidine]	80%	100%	90%	80%	20%	90%	40%	70%	20%	40%	30%	70%	–	–	–	–	–	–	–	–	–
CCN(Cc1cccc(F)c1)c1nc(C2CC2)nc(C(=O)OC)c1Cl [Compound 6-65, 5-Chloro-2-cyclopropyl-4-[N-ethyl-N-(3-fluorophenylmethyl)-amino]-6-methoxycarbonyl-pyrimidine]	70%	100%	90%	90%	10%	100%	20%	70%	40%	30%	20%	70%	–	–	–	–	–	–	–	–	–
COC(=O)c1nc(-c2ccc(Cl)cc2C(F)(F)F)nc(NCc2ccco2)c1Cl [Compound 220-48, 5-Chloro-2-(4-chloro-2-trifluoromethyl-phenyl)-4-(furan-2-ylmethylamino)-6-methoxycarbonyl-pyrimidine]	0%	40%	20%	0%	20%	10%	0%	20%	0%	0%	0%	0%	–	–	–	–	–	–	–	–	–
COC(=O)c1nc(C2CC2)nc(NCc2ccc(OC)cc2)c1Cl [Compound 4-80, 5-Chloro-2-cyclopropyl-6-methoxycarbonyl-4-(4-methoxyphenyl-methylamino)-pyrimidine]	–	–	–	–	–	–	–	–	–	–	–	–	60%	100%	100%	90%	30%	100%	50%	90%	pest or weed control at 1000 g/ha (Solanum nigrum (SOLNI) [9]; [33]): 90%; pest or weed control at 1000 g/ha (Setaria faberi (SETFA) [10]; [34]): 60%; pest or weed control at 1000 g/ha [11, 35]: 40%; pest or weed control at 1000 g/ha [12, 36]: 90%
COC(=O)c1nc(C2CC2)nc(NCc2ccccc2C(F)(F)F)c1Cl [Compound 4-75, 5-Chloro-2-cyclopropyl-6-methoxycarbonyl-4-(2-trifluoromethyl-phenylmethyl-amino)-pyrimidine]	–	–	–	–	–	–	–	–	–	–	–	–	50%	100%	100%	90%	20%	100%	0%	50%	pest or weed control at 1000 g/ha (Solanum nigrum (SOLNI) [9]; [33]): 30%; pest or weed control at 1000 g/ha (Setaria faberi (SETFA) [10]; [34]): 10%; pest or weed control at 1000 g/ha [11, 35]: 10%; pest or weed control at 1000 g/ha [12, 36]: 20%
COC(=O)c1nc(C2CC2)nc(NCc2ccccc2)c1Cl [Compound 4-60, 5-chloro-2-cyclopropyl-6-methoxycarbonyl-4-phenylmethylaminopyrimidine]	–	–	–	–	–	–	–	–	–	–	–	–	90%	100%	100%	90%	20%	100%	0%	60%	pest or weed control at 1000 g/ha (Solanum nigrum (SOLNI) [9]; [33]): 50%; pest or weed control at 1000 g/ha (Setaria faberi (SETFA) [10]; [34]): 30%; pest or weed control at 1000 g/ha [11, 35]: 0%; pest or weed control at 1000 g/ha [12, 36]: 60%
CCN(Cc1ccco1)c1nc(C2CC2)nc(C(=O)OC)c1Cl [Compound 6-125, 5-Chloro-2-cyclopropyl-4-(N-ethyl-N-furan-2-ylmethyl-amino)-6-methoxycarbonyl-pyrimidine]	60%	100%	90%	90%	40%	100%	40%	90%	80%	30%	50%	100%	–	–	–	–	–	–	–	–	–
COC(=O)c1nc(-c2cc(F)c(F)cc2F)nc(NCc2ccco2)c1Cl [Compound 241-48, 5-Chloro-4-(furan-2-ylmethylamino)-6-methoxycarbony-2-(2,4,5-trifluoro-phenyl)pyrimidine]	0%	80%	50%	10%	10%	60%	0%	80%	0%	0%	0%	10%	–	–	–	–	–	–	–	–	–
C=CCN(Cc1ccc(F)cc1)c1nc(C2CC2)nc(C(=O)OC)c1Cl [Compound 151-66, 5-Chloro-2-cyclopropyl-4-[N-(4-fluorophenylmethyl)-N-prop-2-en-1-yl-amino]-6-methoxy-carbonylpyrimidine]	30%	80%	80%	50%	20%	70%	0%	40%	0%	0%	0%	50%	–	–	–	–	–	–	–	–	–
